Data published in US20010049368A1, “Method for treating or preventing depression” (priority 2000, published 2001).

How the values were obtained:
human NK-1 receptor = target: T1, human NK-1 receptor (Homo sapiens, UniProt P25103); assay: NK-1 receptor binding assay in intact CHO cells (125I-Tyr8-substance P); conditions: CHO cells expressing the human NK-1 receptor
T1 construct: expressed in transfected cells; host or cells: intact CHO (Chinese hamster ovary) cells
Description: NK-1 receptor binding assays are performed in intact Chinese hamster ovary (CHO) cells expressing the human NK-1 receptor using a modification of the assay conditions described by Cascieri et al, J. Pharmacol. Exp. Ther., 1992, 42, 458. Typically, the receptor is expressed at a level of 3×10^5 receptors per cell. Cells are grown in monolayer culture, detached from the plate with enzyme-free dissociation solution (Speciality Media Inc.), and washed prior to use in the assay. ^125I-Tyr^8-substance P (0.1 nM, 2000 Ci/mmol; New England Nuclear) is incubated in the presence or absence of test compounds (dissolved in 5 μl dimethylsulphoxide, DMSO) with 5×10^4 CHO cells. Ligand binding is performed in 0.25 ml of 50 mM Tris-HCl, pH7.5, containing 5 mM MnCl2, 150 mM NaCl, 0.02% bovine serum albumin (Sigma), 50 μg/ml chymostatin (Peninsula), 0.1 nM phenylmethylsulphonyl fluoride, 2 μg/ml pepstatin, 2 μg/ml leupeptin and 2.8 μg/ml furoyl saccharine. The incubation proceeds at room temperature until equilibrium is achieved (>40 minutes) and the receptor-ligand complex is harvested by filtration over GF/C filters pre-soaked in 0.1% polyethylenimine using a Tomtek 96-well harvester. Non-specific binding is determined using excess substance P (1 μM) and represents <10% of total binding.

[1] = system: PDE IV inhibitor-induced emesis in the ferret; assay: Ferret emesis: PDE4 inhibitors and neurokinin-1 receptor antagonists; assay type: in vivo; conditions: NK-1 antagonist 3 mg kg-1 i.p. or s.c. 30 minutes prior to oral emetic dose of PDE IV inhibitor
Description: Intracerebroventricular (i.c.v.) administration was performed following a surgical implantation of an i.c.v. guide cannula. Under isoflurane anaesthesia, a 22 gauge stainless steel guide cannula (total length=20 mm) was lowered 9 mm below the surface of the skull, at the midline, 2 mm anterior to the cross-suture of the posterior edge of the skull. The tip of the guide cannula is then positioned 3-5 mm directly above the area postrema. The guide cannula was fixed to the skull using 2 screws and dental acrylic cement. The animals received antibiotic (Clamoxyl LA, SmithKline Beecham, Surrey, U.K.; 15 mg kg^−1 s.c.) and analgesic injections (Zenecarp, C-Vet Limited, Edmounds, U.K.; 5 mg kg^−1 s.c.) and were housed in individual cages. They were allowed at least 1 week to recover. Intracerebroventricular administration of drugs was performed by inserting an injection unit of 24-25 mm (level of the area postrema) or 27 mm (for brain tissue injection) length into the guide cannula and infusing 2 μl of the drug solution (or vehicle) over 1 minute. The drugs were dissolved in DMSO or sterile water. […]
Anti-emetic agents ondansetron (3 mg kg^−1 i.p.), and neurokinin-1 receptor antagonists (3 mg kg^−1 i.p. or s.c.) were administered 30 minutes prior to an oral challenge with an emetic dose of selected PDE IV inhibitors. […] The emetic response was monitored as described earlier. […]

[2] = system: emesis in ferrets (retches and vomits); assay: Ferret emesis: PDE4 inhibitors and alpha-2 adrenoreceptor agonists/antagonists; conditions: for emesis (retching and vomiting) induced by the drug itself: yohimbine by intraperitoneal injection, clonidine 62.5-250 μg kg-1
Description: Experiments were conducted using male, adult, fitch or albino ferrets. They were housed in a humidity and temperature controlled environment and fed on carnivore diet (standard cat food) once a day with water ad libitum. On the day of the experiment, the animals were put in individual observation cages and left to habituate for at least 30 minutes.
Drugs were dissolved immediately before use in 100% PEG 300 or sterile water). Oral administration (p.o.) was performed using a 10 cm feeding tube and drugs were administered in a dosing volume of 1 ml kg^−1. Subcutaneous (s.c.) injections were performed at the base of the neck, using sterile water or PEG 300 as the vehicle. The injection volume used was 0.5-1.0 ml kg^−1. For intravenous (i.v.) injections, the left jugular vein was catheterized with a polyethene cannula under halothane anaesthesia. Drugs were dissolved in PEG 300 50% in sterile water and injected in a volume of 1 ml-kg^−1. The vein was then ligated, the incision closed and the animals observed continuously thereafter.
Ferrets were pre-treated with the alpha2-adrenoceptor antagonist, yohimbine.

T1 sequence (P25103 whole entry): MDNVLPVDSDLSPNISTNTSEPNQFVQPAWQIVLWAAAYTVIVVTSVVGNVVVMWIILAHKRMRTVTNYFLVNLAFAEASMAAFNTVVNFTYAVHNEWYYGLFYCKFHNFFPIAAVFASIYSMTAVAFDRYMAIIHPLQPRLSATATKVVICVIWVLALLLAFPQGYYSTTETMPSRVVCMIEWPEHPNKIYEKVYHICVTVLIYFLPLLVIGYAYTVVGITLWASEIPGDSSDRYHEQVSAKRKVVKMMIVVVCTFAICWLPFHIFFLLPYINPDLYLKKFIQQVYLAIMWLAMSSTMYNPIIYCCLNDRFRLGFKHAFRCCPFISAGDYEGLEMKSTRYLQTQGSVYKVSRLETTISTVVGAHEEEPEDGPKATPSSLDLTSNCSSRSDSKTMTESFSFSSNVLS

## C[C@@H](O[C@H]1OCCN(Cc2nn[nH]c2CN(C)C)[C@H]1c1ccccc1)c1cc(C(F)(F)F)cc(C(F)(F)F)c1 [2-(R)-(1-(R)-(3,5-bis(trifluoromethyl)phenyl)ethoxy)-4-(5-(N,N-dimethylamino)methyl-1,2,3-triazol-4-yl)methyl-3-(S)-phenylmorpholine]
Human NK-1 receptor
  IC50: 0.25 nM

## COc1ccccc1CN[C@H]1CCCN[C@H]1c1ccccc1 [CP-99,994]
[1]
  effect on PDE IV inhibitor-induced emesis: abolished

## CS(=O)(=O)NCCN1C(=O)NC[C@]12CCN1CCc3c(oc4ccccc34)[C@@H]1C2 [MK-467]
[2]
  emesis (retching and vomiting) induced by the drug itself: Emesis was also recorded

## CN1CC[C@]2(CCN3CCc4c(oc5ccccc45)[C@@H]3C2)N(C)C1=O [MK-912]
[2]
  emesis (retching and vomiting) induced by the drug itself: Emesis was also recorded

## Clc1cccc(Cl)c1N=C1NCCN1 [clonidine]
[2]; RS 14203 1 mg kg-1 p.o., clonidine 62.5-250 μg kg-1 pre-treatment
  number of retches and vomits induced by RS 14203: dose-dependently decreased
[2]; RS 14203 1 mg kg-1 p.o., clonidine pre-treatment
  latency of onset of RS 14203-induced emesis: increased
[2]; clonidine 250 μg kg-1, CT-2450 30 mg kg-1 p.o., all animals treated
  emesis induced by CT-2450: abolished
[2]; clonidine 250 μg kg-1, R-rolipram 3 mg kg-1 p.o.
  animals with complete protection against R-rolipram-induced emesis: two out of three
[2]; clonidine 250 μg kg-1, RS 14203 1 mg kg-1 p.o.
  animals with complete protection against RS 14203-induced emesis: five out of six

## COC(=O)[C@@H]1[C@H]2C[C@H]3c4[nH]c5ccccc5c4CCN3C[C@@H]2CC[C@@H]1O [yohimbine]
[2]
  emesis (retching and vomiting) induced by the drug itself: induced retching and vomiting in all ferrets treated
